From ChEMBL document CHEMBL5370693, “Kinases Controlling Stability of the Oncogenic MYCN Protein” (ACS Med Chem Lett, 2023)
Active and inactive are the calls of the source. The rule behind the calls is not given here.

How the values were obtained:
Assay type in all cases: cell-based
[1] = molecular target: T1, N-myc proto-oncogene protein (Homo sapiens) (UniProt P04198); experiment: Induction of MYCN degradation in human SKNBE2 cells at 45 uM incubated for 24 hrs by Western blot analysis
T1 sequence (whole entry): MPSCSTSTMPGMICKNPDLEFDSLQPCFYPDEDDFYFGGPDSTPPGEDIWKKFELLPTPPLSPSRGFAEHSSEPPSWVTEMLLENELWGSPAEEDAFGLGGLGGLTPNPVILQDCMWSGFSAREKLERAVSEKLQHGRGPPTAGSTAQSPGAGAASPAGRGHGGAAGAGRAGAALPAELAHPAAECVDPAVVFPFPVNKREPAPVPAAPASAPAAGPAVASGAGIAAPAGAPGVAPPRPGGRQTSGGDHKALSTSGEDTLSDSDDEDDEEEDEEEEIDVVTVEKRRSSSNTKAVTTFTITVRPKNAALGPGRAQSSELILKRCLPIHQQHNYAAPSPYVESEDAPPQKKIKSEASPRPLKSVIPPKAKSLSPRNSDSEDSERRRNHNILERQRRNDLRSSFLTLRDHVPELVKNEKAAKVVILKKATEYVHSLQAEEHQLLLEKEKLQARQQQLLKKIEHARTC

SKNBE2 [2] = experiment: Inhibition of PI3K in human SKNBE2 cells assessed as degradation of MYCN protein at 10 to 15 uM incubated for 24 hrs by Western blotting analysis; conditions: dose 10-15 µM
[3] = molecular target: T1, N-myc proto-oncogene protein (Homo sapiens); experiment: Induction of MYCN degradation in human SKNBE2 cells at 5 uM incubated for 24 hrs by Western blot analysis
[4] = molecular target: T1, N-myc proto-oncogene protein (Homo sapiens); experiment: Induction of MYCN degradation in human SKNBE2 cells at 5 to 50 uM incubated for 24 hrs by Western blot analysis; conditions: dose 5-50 µM
[5] = molecular target: T1, N-myc proto-oncogene protein (Homo sapiens); experiment: Induction of MYCN degradation in human SKNBE2 cells at 5 to 15 uM incubated for 24 hrs by Western blot analysis; conditions: dose 5-15 µM
[6] = molecular target: Serine/threonine-protein kinase 38-like (Homo sapiens) (UniProt Q9Y2H1); experiment: Inhibition of NDR2 in human SKNBE2 cells assessed as depletion of MYCN protein at 10 uM measured after 24 hrs in presence of CHIR-124 and Cx4945 by Western blot analysis
Serine/threonine-protein kinase 38-like (Homo sapiens), sequence (Q9Y2H1 2-464 limits assumed): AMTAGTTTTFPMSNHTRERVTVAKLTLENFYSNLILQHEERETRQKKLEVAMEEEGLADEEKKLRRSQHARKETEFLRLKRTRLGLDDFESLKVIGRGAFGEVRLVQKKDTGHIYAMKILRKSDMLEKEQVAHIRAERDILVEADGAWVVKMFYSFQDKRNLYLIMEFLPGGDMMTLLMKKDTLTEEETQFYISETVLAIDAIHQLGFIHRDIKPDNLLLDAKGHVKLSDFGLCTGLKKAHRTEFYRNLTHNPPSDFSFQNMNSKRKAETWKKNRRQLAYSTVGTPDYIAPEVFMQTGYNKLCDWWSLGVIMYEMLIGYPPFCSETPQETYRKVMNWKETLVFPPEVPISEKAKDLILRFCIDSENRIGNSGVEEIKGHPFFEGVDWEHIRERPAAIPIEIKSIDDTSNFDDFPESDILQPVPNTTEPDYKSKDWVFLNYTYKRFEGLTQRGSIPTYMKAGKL

SKNBE2 [7] = experiment: Inhibition of CK2 in human SKNBE2 cells assessed as reduction in MYCN/GADPH protein ratio at 20 uM incubated for 24 hrs in presence of CHIR-124/BEZ235 by Western blotting analysis
[8] = molecular target: Serine/threonine-protein kinase 38-like (Homo sapiens) (UniProt Q9Y2H1); experiment: Inhibition of NDR2 in human SKNBE2 cells assessed as depletion of MYCN protein at 10 uM measured after 24 hrs in presence of CHIR-124 by Western blot analysis
[9] = molecular target: Serine/threonine-protein kinase 38-like (Homo sapiens) (UniProt Q9Y2H1); experiment: Inhibition of NDR2 in human SKNBE2 cells assessed as depletion of MYCN protein at 10 uM measured after 24 hrs in presence of BEZ235 and Cx4945 by Western blot analysis
[10] = molecular target: Serine/threonine-protein kinase 38-like (Homo sapiens) (UniProt Q9Y2H1); experiment: Inhibition of NDR2 in human SKNBE2 cells assessed as decreased accumulation of MYCN protein measured after 24 hrs by Western blot analysis
[11] = molecular target: Serine/threonine-protein kinase 38-like (Homo sapiens) (UniProt Q9Y2H1); experiment: Inhibition of NDR2 in human SKNBE2 cells assessed as depletion of MYCN protein at 10 uM measured after 24 hrs in presence of BEZ235 by Western blot analysis
[12] = molecular target: Serine/threonine-protein kinase 38-like (Homo sapiens) (UniProt Q9Y2H1); experiment: Inhibition of NDR2 in human SKNBE2 cells assessed as depletion of MYCN protein at 10 uM measured after 24 hrs in presence of Cx4945 by Western blot analysis
[13] = molecular target: Serine/threonine-protein kinase 38-like (Homo sapiens) (UniProt Q9Y2H1); experiment: Inhibition of NDR2 in human SKNBE2 cells assessed as depletion of MYCN protein at 10 uM measured after 24 hrs in presence of CHIR-124 and BEZ235 by Western blot analysis
[14] = molecular target: Serine/threonine-protein kinase 38-like (Homo sapiens) (UniProt Q9Y2H1); experiment: Inhibition of NDR2 in human SKNBE2 cells assessed as depletion of MYCN protein at 10 uM measured after 24 hrs in presence of CHIR-124, BEZ235 and Cx4945 by Western blot analysis
[15] = molecular target: Serine/threonine-protein kinase 38-like (Homo sapiens) (UniProt Q9Y2H1); experiment: Binding affinity to STK38L in human SKNBE2 cells assessed as effect on thermal stability at 49 degC incubated for 3 hrs by CETSA assay
SKNBE2 [16] = experiment: Inhibition of PI3K in human SKNBE2 cells assessed as reduction in MYCN/GADPH protein ratio at 5 uM incubated for 24 hrs in presence of CHIR-124 by Western blotting analysis
SKNBE2 [17] = experiment: Inhibition of PI3K in human SKNBE2 cells assessed as depletion of MYCN protein at 5 uM measured after 24 hrs in presence of CHIR-124 by Western blot analysis
SKNBE2 [18] = experiment: Inhibition of PI3K in human SKNBE2 cells assessed as reduction in MYCN/GADPH protein ratio at 5 uM incubated for 24 hrs in presence of Cx945 by Western blotting analysis
SKNBE2 [19] = experiment: Inhibition of PI3K in human SKNBE2 cells assessed as depletion of MYCN protein at 5 uM measured after 24 hrs in presence of Cx4945 and CHIR-124 by Western blot analysis
SKNBE2 [20] = experiment: Inhibition of PI3K in human SKNBE2 cells assessed as depletion of MYCN protein at 5 uM measured after 24 hrs in presence of NG25 and CHIR-124 by Western blot analysis
SKNBE2 [21] = experiment: Inhibition of PI3K in human SKNBE2 cells assessed as depletion of MYCN protein at 5 uM measured after 24 hrs in presence of NG25, Cx4945 and CHIR-124 by Western blot analysis
SKNBE2 [22] = experiment: Inhibition of PI3K in human SKNBE2 cells assessed as depletion of MYCN protein at 5 uM measured after 24 hrs in presence of NG25 by Western blot analysis
SKNBE2 [23] = experiment: Inhibition of PI3K in human SKNBE2 cells assessed as depletion of MYCN protein at 5 uM measured after 24 hrs in presence of Cx4945 by Western blot analysis
SKNBE2 [24] = experiment: Inhibition of PI3K in human SKNBE2 cells assessed as reduction in MYCN/GADPH protein ratio at 5 uM incubated for 24 hrs in presence of […]/CHIR-124 by Western blotting analysis
SKNBE2 [25] = experiment: Inhibition of PI3K in human SKNBE2 cells assessed as depletion of MYCN protein at 5 uM measured after 24 hrs in presence of Cx4945 and NG25 by Western blot analysis
SKNBE2 [26] = experiment: Inhibition of PI3K in human SKNBE2 cells assessed as degradation of MYCN protein at 5 to 10 uM incubated for 24 hrs by Western blotting analysis; conditions: dose 5-10 µM
[27] = molecular target: T1, N-myc proto-oncogene protein (Homo sapiens); experiment: Induction of MYCN degradation in human SKNBE2 cells incubated for 24 hrs by Western blot analysis; conditions: dose 1-50 µM
[28] = molecular target: T2, Serine/threonine-protein kinase Chk1 (Homo sapiens) (UniProt O14757); experiment: Inhibition of CHK1 in human SKNBE2 cells assessed as depletion of MYCN protein at >1 uM incubated for 24 hrs by Western blotting analysis
T2 sequence (whole entry): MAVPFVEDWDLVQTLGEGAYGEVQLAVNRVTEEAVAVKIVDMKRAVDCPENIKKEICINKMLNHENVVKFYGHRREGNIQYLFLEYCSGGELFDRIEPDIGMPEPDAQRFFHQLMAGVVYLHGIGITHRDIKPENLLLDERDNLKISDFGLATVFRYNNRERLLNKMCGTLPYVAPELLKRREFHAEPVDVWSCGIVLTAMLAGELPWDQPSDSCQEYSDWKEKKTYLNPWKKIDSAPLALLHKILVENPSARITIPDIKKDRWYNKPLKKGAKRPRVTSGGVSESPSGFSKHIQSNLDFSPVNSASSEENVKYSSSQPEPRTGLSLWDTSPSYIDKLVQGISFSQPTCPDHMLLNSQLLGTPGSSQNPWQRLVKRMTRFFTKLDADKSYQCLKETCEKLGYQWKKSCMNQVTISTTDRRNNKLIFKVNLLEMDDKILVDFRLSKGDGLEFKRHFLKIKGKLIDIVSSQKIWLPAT

Compound: CC(C)CCOc1ccc2occ(-c3ccc(O)c(O)c3)c(=O)c2c1
- Activity [1]: Active

Compound: CS(=O)(=O)N1CCN(Cc2cc3nc(-c4cccc5[nH]ncc45)nc(N4CCOCC4)c3s2)CC1
- inhibition (SKNBE2 [2]): inactive

Compound: CC(C)CCOc1ccc2c(c1)OCC(c1ccc(O)c(O)c1)C2 (stereo not given)
- Activity [3]: Active

Compound: CCCOc1ccc2c(=O)c(-c3ccc(O)c(O)c3)coc2c1
- Activity [4]: Active

Compound: CCCCCCOc1ccc2c(=O)c(-c3ccc(O)c(O)c3)coc2c1
- Activity [5]: Active

Compound: O=C(O)c1ccc2c(c1)nc(Nc1cccc(Cl)c1)c1ccncc12
- inhibition [6]: Active
- inhibition (SKNBE2 [7]): Active

Compound: CCN1CCN(Cc2ccc(NC(=O)c3ccc(C)c(Oc4ccnc5[nH]ccc45)c3)cc2C(F)(F)F)CC1
- inhibition [8]: Active
- inhibition [9]: Active
- inhibition [10]: Dose-Dependent Effect
- inhibition [11]: Active
- inhibition [12]: inactive
- inhibition [13]: Active
- inhibition [14]: Active
- Activity [15]: inactive

Compound: COc1cc(N2CCC(N3CCN(C)CC3)CC2)ccc1Nc1ncc(Cl)c(Nc2ccccc2S(=O)(=O)C(C)C)n1
- inhibition [10]: Dose-Dependent Effect

Compound: Cn1c(=O)n(-c2ccc(C(C)(C)C#N)cc2)c2c3cc(-c4cnc5ccccc5c4)ccc3ncc21
- inhibition (SKNBE2 [16]): Active
- inhibition (SKNBE2 [17]): Active
- inhibition (SKNBE2 [18]): Active
- inhibition (SKNBE2 [19]): Active
- inhibition (SKNBE2 [20]): Active
- inhibition (SKNBE2 [21]): Active
- inhibition (SKNBE2 [22]): Active
- inhibition (SKNBE2 [23]): Active
- inhibition (SKNBE2 [24]): Active
- inhibition (SKNBE2 [25]): Active
- inhibition (SKNBE2 [26]): inactive

Compound: COc1cc(C)c(Sc2cnc(NC(=O)c3ccc(CNC(C)C(C)(C)C)cc3)s2)cc1C(=O)N1CCN(C(C)=O)CC1 (stereo not given)
- Activity [27]: Dose-Dependent Effect

Compound: Cn1cc(-c2[nH]c3cc(NC(=O)[C@H](N)C4CCCCC4)cc4c3c2C=NNC4=O)cn1
- inhibition [28]: Active

Compound: CCN1CCN(c2ccc(Nc3cc(N(C)C(=O)Nc4c(Cl)c(OC)cc(OC)c4Cl)ncn3)cc2)CC1
- inhibition [10]: Dose-Dependent Effect
